Measurements as given in patent US20250382332A1, “NOVEL ALPHA-FACTOR BASED PEPTIDES WITH ANTIFUNGAL ACTIVITY” (INVAIO SCIENCES, INC., priority 2024, published 2025).
Peptide text beside a SMILES is read from it.

Test system: Botrytis cinerea (B05.10)
Experiment: Resazurin antifungal assay of 180 alpha-factor peptide variants towards Botrytis (Example 2)
Assay type: cell-based
Conditions: % inhibition of fungal growth, Botrytis conidia, resazurin; for Inhibition at 50 μM: peptide 50 μM; for Inhibition at 100 μM: peptide 100 μM
In short: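 Resazurin viability read-out (570/620 nm fluorescence) after a 24 h, 20° C incubation of B05.10 conidia, 5000 per well, with peptide at final 10-100 μM. Growth inhibition (%) was derived by subtracting conidia-only fluorescence; four replicates per treatment.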

CC[C@H](C)[C@H](NC(=O)[C@H](CCC(N)=O)NC(=O)[C@H](CC(C)C)NC(=O)[C@H](Cc1ccccc1)NC(=O)[C@H](Cc1c[nH]cn1)NC(=O)[C@@H](N)Cc1c[nH]c2ccccc12)C(=O)N[C@@H](CCCCN)C(=O)N1CCC[C@H]1C(=O)NCC(=O)N[C@@H](CCC(=O)O)C(=O)N1CCC[C@H]1C(=O)N[C@@H](CCSC)C(=O)N[C@@H](Cc1ccc(O)cc1)C(=O)O [compound 150] (H-WHFLQIKPGEPMY-OH; N-terminus and C-terminus assumed)
Inhibition at 50 μM: <90%
Inhibition at 100 μM: <90%

CSCC[C@H](NC(=O)[C@@H]1CCCN1C(=O)[C@H](CCC(N)=O)NC(=O)CNC(=O)[C@@H]1CCCN1C(=O)[C@H](CCCCN)NC(=O)[C@H](CC(C)C)NC(=O)[C@H](CC(N)=O)NC(=O)[C@H](CC(C)C)NC(=O)[C@H](Cc1c[nH]c2ccccc12)NC(=O)[C@H](CCC(=O)O)NC(=O)[C@@H](N)CCCCN)C(=O)N[C@@H](Cc1ccc(O)cc1)C(=O)O [compound 151] (H-KEWLNLKPGQPMY-OH; N-terminus and C-terminus assumed)
Inhibition at 50 μM: <90%
Inhibition at 100 μM: <90%

CC[C@H](C)[C@H](NC(=O)[C@H](CCC(N)=O)NC(=O)[C@H](CC(C)C)NC(=O)[C@H](Cc1c[nH]c2ccccc12)NC(=O)[C@H](CO)NC(=O)[C@@H](N)CCCCN)C(=O)N[C@@H](CCCCN)C(=O)N[C@@H](CC(N)=O)C(=O)NCC(=O)N[C@@H](CCC(N)=O)C(=O)N1CCC[C@H]1C(=O)N[C@@H](CCSC)C(=O)N[C@@H](Cc1ccc(O)cc1)C(=O)O [compound 152] (H-KSWLQIKNGQPMY-OH; N-terminus and C-terminus assumed)
Inhibition at 50 μM: <90%
Inhibition at 100 μM: <90%

CC[C@H](C)[C@H](NC(=O)CNC(=O)[C@@H](N)CCCCN)C(=O)N[C@@H](CC(C)C)C(=O)N[C@H](C(=O)N[C@@H](CC(C)C)C(=O)N[C@@H](CCCCN)C(=O)N1CCC[C@H]1C(=O)NCC(=O)N[C@@H](CCC(N)=O)C(=O)N1CCC[C@H]1C(=O)N[C@@H](CCSC)C(=O)N[C@@H](Cc1ccc(O)cc1)C(=O)O)[C@@H](C)O [compound 153] (H-KGILTLKPGQPMY-OH; N-terminus and C-terminus assumed)
Inhibition at 50 μM: <90%
Inhibition at 100 μM: <90%

CSCC[C@H](NC(=O)[C@@H]1CCCN1C(=O)[C@H](CO)NC(=O)CNC(=O)[C@@H]1CCCN1C(=O)[C@H](CCCCN)NC(=O)[C@H](CC(C)C)NC(=O)[C@H](C)NC(=O)[C@H](CC(C)C)NC(=O)[C@@H](NC(=O)[C@H](Cc1c[nH]cn1)NC(=O)[C@@H](N)CCCCN)C(C)C)C(=O)N[C@@H](Cc1ccc(O)cc1)C(=O)O [compound 154] (H-KHVLALKPGSPMY-OH; N-terminus and C-terminus assumed)
Inhibition at 50 μM: <90%
Inhibition at 100 μM: <90%

CC[C@H](C)[C@H](NC(=O)[C@H](CCCCN)NC(=O)[C@@H](N)Cc1c[nH]c2ccccc12)C(=O)N[C@@H](CC(C)C)C(=O)N[C@H](C(=O)N[C@H](C(=O)N[C@@H](CCCCN)C(=O)N1CCC[C@H]1C(=O)NCC(=O)N[C@@H](CCC(N)=O)C(=O)N1CCC[C@H]1C(=O)N[C@@H](CCSC)C(=O)N[C@@H](Cc1ccc(O)cc1)C(=O)O)[C@@H](C)CC)[C@@H](C)O [compound 155] (H-WKILTIKPGQPMY-OH; N-terminus and C-terminus assumed)
Inhibition at 50 μM: <90%
Inhibition at 100 μM: <90%

CSCC[C@H](NC(=O)[C@@H]1CCCN1C(=O)[C@H](CO)NC(=O)CNC(=O)[C@H](CC(N)=O)NC(=O)[C@H](CCCCN)NC(=O)[C@H](CC(C)C)NC(=O)[C@H](CCC(N)=O)NC(=O)[C@@H](NC(=O)[C@H](CC(=O)O)NC(=O)[C@H](Cc1c[nH]cn1)NC(=O)[C@@H](N)CCCCN)C(C)C)C(=O)N[C@@H](Cc1ccc(O)cc1)C(=O)O [compound 156] (H-KHDVQLKNGSPMY-OH; N-terminus and C-terminus assumed)
Inhibition at 50 μM: <90%
Inhibition at 100 μM: <90%

CSCC[C@H](NC(=O)[C@@H]1CCCN1C(=O)[C@H](CCC(N)=O)NC(=O)CNC(=O)[C@@H](NC(=O)[C@H](CCC(N)=O)NC(=O)[C@H](Cc1ccccc1)NC(=O)[C@H](CC(N)=O)NC(=O)CNC(=O)[C@H](Cc1c[nH]c2ccccc12)NC(=O)[C@H](Cc1c[nH]cn1)NC(=O)[C@@H](N)Cc1c[nH]c2ccccc12)[C@@H](C)O)C(=O)N[C@@H](Cc1ccc(O)cc1)C(=O)O [compound 157] (H-WHWGNFQTGQPMY-OH; N-terminus and C-terminus assumed)
Inhibition at 50 μM: <90%
Inhibition at 100 μM: 97.14%

CSCC[C@H](NC(=O)[C@@H]1CCCN1C(=O)[C@H](CCC(=O)O)NC(=O)CNC(=O)[C@@H]1CCCN1C(=O)[C@H](CCCCN)NC(=O)[C@H](CC(C)C)NC(=O)[C@H](CC(N)=O)NC(=O)[C@H](CC(C)C)NC(=O)[C@H](Cc1c[nH]c2ccccc12)NC(=O)[C@H](Cc1c[nH]cn1)NC(=O)[C@@H]1CCCN1)C(=O)N[C@@H](Cc1ccc(O)cc1)C(=O)O [compound 158] (H-PHWLNLKPGEPMY-OH; N-terminus and C-terminus assumed)
Inhibition at 50 μM: <90%
Inhibition at 100 μM: <90%

CSCC[C@H](NC(=O)[C@H](CO)NC(=O)[C@H](CCC(N)=O)NC(=O)CNC(=O)[C@@H]1CCCN1C(=O)[C@H](CCCCN)NC(=O)[C@H](Cc1ccccc1)NC(=O)[C@H](CC(N)=O)NC(=O)[C@H](CC(C)C)NC(=O)[C@H](CO)NC(=O)[C@H](CCCCN)NC(=O)[C@@H](N)Cc1c[nH]c2ccccc12)C(=O)N[C@@H](Cc1ccc(O)cc1)C(=O)O [compound 159] (H-WKSLNFKPGQSMY-OH; N-terminus and C-terminus assumed)
Inhibition at 50 μM: <90%
Inhibition at 100 μM: <90%

CSCC[C@H](NC(=O)[C@@H]1CCCN1C(=O)[C@H](CCC(N)=O)NC(=O)CNC(=O)[C@@H]1CCCN1C(=O)[C@H](CCCCN)NC(=O)[C@H](CC(C)C)NC(=O)[C@H](CO)NC(=O)[C@@H](NC(=O)[C@H](Cc1c[nH]c2ccccc12)NC(=O)[C@H](Cc1c[nH]cn1)NC(=O)[C@@H]1CCCN1)C(C)C)C(=O)N[C@@H](Cc1ccc(O)cc1)C(=O)O [compound 160] (H-PHWVSLKPGQPMY-OH; N-terminus and C-terminus assumed)
Inhibition at 50 μM: <90%
Inhibition at 100 μM: <90%

CSCC[C@H](NC(=O)[C@@H]1CCCN1C(=O)[C@H](CO)NC(=O)CNC(=O)[C@@H]1CCCN1C(=O)[C@H](CCCCN)NC(=O)[C@H](Cc1ccccc1)NC(=O)[C@H](C)NC(=O)[C@@H](NC(=O)[C@H](Cc1c[nH]c2ccccc12)NC(=O)[C@H](Cc1c[nH]cn1)NC(=O)[C@@H]1CCCN1)C(C)C)C(=O)N[C@@H](Cc1ccc(O)cc1)C(=O)O [compound 161] (H-PHWVAFKPGSPMY-OH; N-terminus and C-terminus assumed)
Inhibition at 50 μM: <90%
Inhibition at 100 μM: 90.52%

CSCC[C@H](NC(=O)[C@@H]1CCCN1C(=O)[C@H](CCC(N)=O)NC(=O)CNC(=O)[C@@H]1CCCN1C(=O)[C@H](CCCCN)NC(=O)[C@H](CC(C)C)NC(=O)[C@H](CCC(=O)O)NC(=O)[C@H](CC(C)C)NC(=O)[C@H](Cc1ccc(O)cc1)NC(=O)[C@H](Cc1c[nH]cn1)NC(=O)[C@@H](N)CCCCN)C(=O)N[C@@H](Cc1ccc(O)cc1)C(=O)O [compound 162] (H-KHYLELKPGQPMY-OH; N-terminus and C-terminus assumed)
Inhibition at 50 μM: <90%
Inhibition at 100 μM: <90%
